PMC12519263, “Antifibrotic Efficacy of a Nintedanib–Peptide Conjugate and Diagnostic Potential of a Fluorescent Companion Probe Targeting αVβ6 Integrin in Idiopathic Pulmonary Fibrosis” (ACS Pharmacology & Translational Science, 2025)
Numbered stars: 1 amine (or outer) side, 2 acyl side, 3 side chain; on linkers, the order of the positions; unused ones are H or OH. Square brackets hold non-standard residues; d marks the D form. Peptide text beside a SMILES is read from it. X1 = [N-]=[N+]=NCCCCN1C[C@@H](N[*:1])C[C@H]1C(=O)[*:2]

What was measured:
human αvβ6 integrin = molecular target: T1, human αvβ6 integrin (Homo sapiens, UniProt P06756+P18564, DEL708-788); experiment: Competitive solid-phase αvβ6 integrin binding assay to coated LAP; settings: competitive solid-phase binding to coated LAP (0.4 μg/mL); soluble human αvβ6 0.25 μg/mL; compounds 10^-5–10^-10 M, 1 h room temperature; absorbance 450 nm; mean ± SD of three independent experiments in triplicate
T1 construct: purchased R&D Systems
Procedure: The ability of conjugate 1 to bind to the human, isolated αvβ6 integrin receptor was evaluated by a competitive solid-phase ligand-binding assay on purified αvβ6 integrin in the presence of increasing concentrations (10^–10–10^–5 M) of 1. To better evaluate the impact of the linker and nintedanib moieties on the binding capability of 1, the results (Table ) were compared to those obtained for free cyclopeptide 3 and previously reported cyclopeptide 11 (the deprotected version of prot-11, Scheme ). Binding curves are provided in Figure S3, Supporting Information.
The affinity of integrin ligands 1, 3, and 11 was determined by the solid-phase binding assay using soluble αvβ6 integrin and coated LAP, according to a previously reported protocol. Flat-bottom 96-well plates (Corning Costar, Segrate, Milan, Italy) were coated by passive adsorption with LAP (TGF-β; 0.4 μg/mL; R&D Systems) in carbonate buffer (15 mM Na2CO3 and 35 mM NaHCO3, pH 9.6; 100 μL/well) overnight at 4 °C. After three washes with PBS-T buffer (phosphate-buffered saline–Tween20, 137 mM NaCl, 2.7 mM KCl, 10 mM Na2HPO4, 2 mM KH2PO4, and 0.01% Tween20, pH 7.4; 200 μL/well), wells were blocked with TS-B buffer (Tris–saline/BSA buffer; 20 mM Tris–HCl, 150 mM NaCl, 1 mM CaCl2, 1 mM MgCl2, 1 mM MnCl2, pH 7.5, and 1% BSA; 150 μL/well) for 1 h at room temperature. After washing the assay plate three times with PBS-T (200 μL/well), soluble human αvβ6 integrin (0.25 μg/mL, R&D Systems) was incubated with compounds and tested at different concentrations (10^–5–10^–10 M), in the coated wells for 1 h at room temperature. The plate was washed three times with PBS-T buffer, and anti-αv primary antibody (1:500 dilution, 100 μL/well; mouse antihuman MAB1978, Merck Life Science, Milan, Italy) was added and incubated for 1 h at room temperature. […] The reaction was stopped with 1 M H2SO4 (50 μL/well), and the absorbance was measured at 450 nm with an EnSpire Multimode Plate Reader (PerkinElmer, Waltham, MA). […] Data analysis and IC50 affinity values were calculated using GraphPad Prism 10.4.1 (GraphPad Software, San Diego, CA). […]

[1] = In vitro stability in mouse plasma (LC-MS/MS); format: in vitro ADME; settings: 80% v/v mouse plasma in 100 mM PBS pH 7.4, 37 °C, plasma pre-incubated 10 min, 1% DMSO, LC-MS/MS (MRM, ESI+), vs t = 0, mean ± SD (n=3), read-out: % Compound at 6h mouse plasma
Procedure: (§1) 2. In vitro plasma stability of compounds 1 and 2
(§2) Stability of compounds 1 and 2 in mouse and human plasma was evaluated by incubating 5 μL of a 100 µM solution of each compound in DMSO with 400 μL of plasma and 95 μL of 100 mM phosphate buffered saline (PBS) pH 7.4 (final compound concentration: 1 µM; final DMSO concentration: 1%). Plasma samples were pre-incubated at 37 °C for 10 min before adding the compound. At different time points, an aliquot was withdrawn from each sample and deproteinized by addition of 100 μL of ice-cold acetonitrile containing the structurally related compound 13 as internal standard (Table S1). After a centrifugation step (14,000 g, 10 min, 4 °C), the supernatants were analyzed by LC-MS/MS. A multiple reaction monitoring (MRM) acquisition method in positive ion mode (ESI+) was set up to monitor the remaining percentages of test compound at different time points, if compared to time t = 0.
(§3) LC-MS/MS Analytical Method. A Thermo TSQ Quantum triple-quadrupole mass spectrometer (Thermo Italia, Milan, Italy) equipped with a heated electrospray (H-ESI) ion source and coupled to a Thermo Accela UHPLC system was employed for LC-MS/MS data acquisition and analysis. The LC separation occurred on a Waters XSelect HSS T3 column (3.5 μm, 2.1 × 100 mm; Waters, Milford, USA) at room temperature. […]

[2] = In vitro stability in human plasma (LC-MS/MS); format: in vitro ADME; settings: 80% v/v human plasma in 100 mM PBS pH 7.4, 37 °C, plasma pre-incubated 10 min, 1% DMSO, LC-MS/MS (MRM, ESI+), vs t = 0, mean ± SD (n=3), read-out: % Compound at 6h human plasma
Procedure: as §1, §2, §3

[3] = system: TGF-β1 in hIPF fibroblasts; experiment: Western blot of intracellular TGF-β1 (44 kDa) expression; format: cell-based, human; settings: 24 h, 5 μM, Western blot densitometry normalized to vinculin, vs untreated, three independent experiments
Text: (§4) The effect of treatment with compound 1 on patient-derived hIPF fibroblasts was next investigated by evaluating the inhibition of both TGF-β1 production and ERK1/2 phosphorylation. It is important to note that TGF-β1 expression is usually evaluated in cultured cells in secreted form in their culture medium (soluble and active form of TGF-β1 (13 kDa)). We reasoned that the evaluation of the intracellular form of full-length TGF-β1 (44 kDa) in hIPF fibroblasts might directly reflect the potency of the conjugated compound to inhibit TGF-β1 production. Evaluation of these fibrosis-related hallmarks would have been indicative of the downstream effect of our conjugate on IPF-related human cell signaling promoted by either the integrin ligand, the nintedanib component, or both. […]
(§5) The protein content in each sample was quantified using the Bradford colorimetric assay, and 56 μg of total proteins was prepared for SDS-PAGE analysis using Bolt LDS Sample Buffer 4× (Novex, Life Technologies) with 10% Bolt Sample Reducing Agent 10× (Novex, Life Technologies). […] Each band detected was quantified by densitometric analysis, using ImageJ software, and normalized against vinculin expression as the housekeeper protein.

human recombinant VEGFR = system: human recombinant VEGFR; set-up: method as in previously reported, see ref (number not given); settings: ref previously reported, see ref (number not given); read-out: IC50, TKI activity against human recombinant VEGFR; cited from earlier work
[4] = system: p-ERK1/2 in hIPF fibroblasts; experiment: Western blot of ERK1/2 phosphorylation; format: cell-based, human; settings: 24 h, 5 μM, Western blot densitometry normalized to vinculin, vs untreated, three independent experiments
Text: as §4, §5

hIPF fibroblasts = experiment: Cell internalization by flow cytometry (intrinsic nintedanib fluorescence); format: cell-based, human; settings: 24 h, 5 μM, flow cytometry λex 405 nm, BV421 channel, one representative result
Procedure: Cells were exposed for 24 h for treatment with compound 1 or nintedanib at 5 μM concentration; next, the percentage of positive cells of different treatment populations was determined and compared with the fluorescence intensity of untreated (UT) cells.
The integrin-mediated cell internalization of conjugate 1 and free nintedanib was determined by exploiting the intrinsic fluorescence of the nintedanib moiety (λex = 405 nm; λem = 480 nm). Intracellular fluorescence activity of 5 μM nintedanib was measured by flow cytometry. Fluorescence emission was analyzed using the BD Brilliant Violet 421 channel (450/50 nm bandpass filter) for the 405 nm laser.
Briefly, 150,000 cells were seeded in T25 flasks in complete culture medium and treated for 24 h with nintedanib or compound 1 at 5 μM concentration. After incubation, the cells were washed with PBS, gently detached using trypsin–EDTA solution, and resuspended in complete medium. After centrifugation (1500 rpm for 5 min), the cells were washed in PBS and resuspended in 300 μL of PBS for FACS analysis.

[5] = system: BLM-induced lung fibrosis; experiment: Antifibrotic therapy in BLM-induced lung fibrosis mouse model (Study #2; μCT, histology); format: in vivo, C57Bl/6 mice; settings: day 14 to 21, BLM mice; for severe fibrotic lesions (Ashcroft score, histology): left lobe, Picrosirius red, day 21, vs BLM
Text: After triple BLM instillation, all mice underwent μCT imaging on days 14 and 21, indicating the beginning and the end of the therapeutic window. , On day 14, the BLM-treated mice were divided into 5 groups, namely, Vehicle, NINT (23), NINT (94), PepNIN 1 (23), and Ligand 11 (23). […] The two remaining groups received the NINT (23) (nintedanib at 23 μmol/kg) and ligand 11 (23) (cyclopeptide ligand 11 at 23 μmol/kg) alone to investigate the therapeutic effect of each single component at this reduced dosage.
Bleomycin hydrochloride (Baxter) dissolved in 50 μL of saline was administered via a triple oropharyngeal aspiration (OA) under 2.5% isoflurane anesthesia to induce pulmonary fibrosis, as previously described. , The negative control group received a triple OA with saline (Saline).
In Study #2, BLM-treated mice (29 of 35 mice) on day 14 were divided into 5 different groups (reported in Table S2, Supporting Information) and were daily treated with nintedanib (94 or 23 μmol/kg), PepNIN 1 (23 μmol/kg), integrin ligand 11 (23 μmol/kg), or vehicle (1% Tween 80 in ultrapure water) by oral gavage from day 14 to day 21. All mice were longitudinally monitored by μCT imaging on days 14 and 21, and subsequently they were sacrificed for the histological assessment of lung fibrosis.
Mice thoraxes were imaged using a Quantum GX Micro-CT scanner (Revvity, Inc. Waltham, MA) after anesthetic induction and maintenance with 2% isoflurane. Images were taken in free-breathing mice using the following parameters: an X-ray tube current of 88 A, an X-ray tube voltage of 90 kV, and a total angle of 360° over a scan period of 4 min. The detector was 736 × 588 pixels with a size of 0.2 mm. The reconstruction method automatically trimmed the pixels to produce a projection size of 512 × 512 pixels. Binning was not employed. Each animal was placed supine on the scanner bed, with its chest adjusted to fit inside the field of view. To detect the breathing pattern, pictures were captured in “high-speed” mode, allowing the recording of the gating signal through a region of interest (ROI) positioned over the animals’ diaphragm. Projections were collected in “list mode” (labeled as “00000”, “00001”, ···, “14′687”) during a single continuous gantry rotation. […] The acquisition duration was 4 min, and around 900 projections (both P01 and P02) were automatically selected and used for the reconstruction of the two data sets, with the option to change the thresholds to select the most suited projections. However, our highly controlled anesthetic protocol , enabled us to maintain constant breathing rates (100–120 bpm). Two stacks of 512 cross-sectional images were automatically reconstructed into two 3D data sets corresponding to the inspiratory and expiratory breathing phases (end-inspiration, P01; end-expiration, P02), with a 50 μm isotropic reconstructed voxel size, using a filtered back-projection algorithm with a Ram-Lak filter.

[6] = molecular target: soluble human αvβ6 integrin (human) (UniProt P06756); experiment: ELISA; competitive solid-phase binding assay: LAP (0.4 μg/mL) coated in carbonate buffer pH 9.6 overnight at 4 °C, blocked with TS-B buffer (20 mM Tris–HCl, 150 mM NaCl, 1 mM CaCl2, 1 mM MgCl2, 1 mM MnCl2, pH 7.5, 1% BSA); soluble human αvβ6 (0.25 μg/mL) incubated with compounds (10^-5–10^-10 M) in the coated wells 1 h at room temperature; bound integrin detected with anti-αv antibody and HRP secondary
[7] = 94 μmol/kg oral gavage daily, vs BLM group

## COC(=O)c1ccc2c(c1)NC(=O)/C2=C(\Nc1ccc(N(C)C(=O)CN2CCN(CCOCCOCCOCc3cn(CCCCN4C[C@@H]5C[C@H]4C(=O)N[C@@H](CC(C)C)C(=O)N[C@@H](CCCNC(=N)N)C(=O)NCC(=O)N[C@@H](CC(=O)O)C(=O)N[C@@H](CC(C)C)C(=O)N5)nn3)CC2)cc1)c1ccccc1 [compound 1]
Human αvβ6 integrin
  IC50: 1.95 ± 0.16 nM
[1]
  remaining at 6 h: 95 ± 4%
[2]
  remaining at 6 h: 96 ± 5%

## CC(C)C[C@@H]1NC(=O)[C@H](CC(=O)O)NC(=O)CNC(=O)[C@H](CCCNC(=N)N)NC(=O)[C@H](CC(C)C)NC(=O)[C@@H]2C[C@@H](CN2C(=O)CCCCCNC(=O)CCc2ccc(OC3=C(/C=C/C4=[N+](CCC[N+](C)(C)C)c5ccc(S(=O)(=O)O)cc5C4(C)C)CCC/C3=C\C=C3\N(CCC[N+](C)(C)C)c4ccc(S(=O)(=O)O)cc4C3(C)C)cc2)NC1=O [compound 2]
[1]
  remaining at 6 h: 59 ± 3%
[2]
  remaining at 6 h: 51 ± 3%

## CC(C)C[C@@H]1NC(=O)[C@H](CC(=O)O)NC(=O)CNC(=O)[C@H](CCCNC(=N)N)NC(=O)[C@H](CC(C)C)NC(=O)[C@@H]2C[C@@H](CN2CCCCN=[N+]=[N-])NC1=O [compound 3] (cyclo(RGDL[X1]L))
Human αvβ6 integrin
  IC50: 4.52 ± 0.68 nM

## CC(C)C[C@@H]1NC(=O)[C@H](CC(=O)O)NC(=O)CNC(=O)[C@H](CCCNC(=N)N)NC(=O)[C@H](CC(C)C)NC(=O)[C@@H]2C[C@@H](CN2C(=O)CCCCCN=[N+]=[N-])NC1=O [compound 11]
Human αvβ6 integrin
  IC50: 30.3 ± 7.6 nM

## COC(=O)c1ccc2c(c1)NC(=O)/C2=C(\Nc1ccc(N(C)C(=O)CN2CCN(C)CC2)cc1)c1ccccc1 [nintedanib]
[3]
  expression of intracellular form of TGF-β1 (44 kDa): reduced
Human recombinant VEGFR
  IC50: 7 nM
[4]
  ERK1/2 phosphorylation: reduced
hIPF fibroblasts
  percentage of positive cells (internalization): about 94%
hIPF fibroblasts; listed as NINT
  percentage of positive cells (internalization): 93.8%
[5]; 23 μmol/kg oral gavage daily
  severe fibrotic lesions (Ashcroft score, histology): had no effects
[5]; 23 μmol/kg oral gavage daily, vs BLM group
  lung aeration by longitudinal μCT (%GasExpiration, poorly aerated tissue): tendency toward disease progression
[5]; 94 μmol/kg oral gavage daily
  severe fibrotic lesions (Ashcroft score, histology): clearly reduced severe fibrotic lesions
[5]; [7]
  CT biomarkers adjusted to own basal value on day 14: statistically significant improvement
  lung aeration by longitudinal μCT (%GasExpiration, poorly aerated tissue): significantly improved lung aeration

## c(phg-isoDGRk) (peptide)
[6]
  IC50: 24.7 nM
